Data from the PolyMetriX glass transition set.
± gives the standard deviation of the reports.

glass transition temperature [°C]	SMILES
227.00 ± 4.2	*Oc1ccc(C(c2ccc(Oc3ccc4c(c3)C(=O)N(c3ccc(Cc5ccc(N6C(=O)c7ccc(*)cc7C6=O)cc5)cc3)C4=O)cc2)(C(F)(F)F)C(F)(F)F)cc1 (repeat unit)
420.00	*c1ccc(-c2ccc(N3C(=O)c4cc5c(cc4C3=O)C(C(F)(F)F)(C(F)(F)F)c3cc4c(cc3O5)C(=O)N(*)C4=O)cc2C(F)(F)F)c(C(F)(F)F)c1 (repeat unit)
375.00	*c1ccc(-c2ccc(N3C(=O)c4cc5c(cc4C3=O)C(C(F)(F)F)(C(F)(F)F)c3cc4c(cc3O5)C(=O)N(*)C4=O)cc2OC(F)(F)F)c(OC(F)(F)F)c1 (repeat unit)
400.00	*c1ccc(-c2ccc(N3C(=O)c4cc5c(cc4C3=O)C(c3ccccc3)(C(F)(F)F)c3cc4c(cc3O5)C(=O)N(*)C4=O)cc2OC(F)(F)F)c(OC(F)(F)F)c1 (repeat unit)
374.50 ± 15	*c1ccc2c(c1)C(=O)N(c1c(F)c(F)c(-c3c(F)c(F)c(N4C(=O)c5ccc(C(*)(C(F)(F)F)C(F)(F)F)cc5C4=O)c(F)c3F)c(F)c1F)C2=O (repeat unit)
375.50 ± 6.4	*c1ccc2c(c1)C(=O)N(c1c(F)c(F)c(N3C(=O)c4ccc(C(*)(C(F)(F)F)C(F)(F)F)cc4C3=O)c(F)c1F)C2=O (repeat unit)
365.00	*c1ccc2c(c1)C(=O)N(c1cc(C(F)(F)F)c(N3C(=O)c4ccc(C(*)(C(F)(F)F)C(F)(F)F)cc4C3=O)cc1C(F)(F)F)C2=O (repeat unit)
256.00	*Oc1ccc(Oc2ccc3c(c2)C(=O)N(c2ccc(Oc4ccc5ccccc5c4-c4c(Oc5ccc(N6C(=O)c7ccc(*)cc7C6=O)cc5C(F)(F)F)ccc5ccccc45)c(C(F)(F)F)c2)C3=O)cc1 (repeat unit)
274.00	*Oc1ccc2c(c1)C(=O)N(c1cc(N3C(=O)c4ccc(*)cc4C3=O)cc(C(F)(F)F)c1)C2=O (repeat unit)
263.00	*c1ccc2c(c1)C(=O)N(c1cc(N3C(=O)c4ccc([Si](*)(C)C)cc4C3=O)cc(C(F)(F)F)c1)C2=O (repeat unit)
329.00	*c1ccc2c(c1)C(=O)N(c1ccc(-c3ccc(N4C(=O)c5ccc(C(*)(C(F)(F)F)C(F)(F)F)cc5C4=O)cc3Br)c(Br)c1)C2=O (repeat unit)
283.00	*c1ccc2c(c1)C(=O)N(c1ccc(-c3ccc(N4C(=O)c5ccc(C(*)(C(F)(F)F)C(F)(F)F)cc5C4=O)cc3-c3ccc(C(F)(F)F)cc3)c(-c3ccc(C(F)(F)F)cc3)c1)C2=O (repeat unit)
286.00	*c1ccc2c(c1)C(=O)N(c1ccc(-c3ccc(N4C(=O)c5ccc(C(*)(C(F)(F)F)C(F)(F)F)cc5C4=O)cc3-c3ccc(C)cc3)c(-c3ccc(C)cc3)c1)C2=O (repeat unit)
285.00	*c1ccc2c(c1)C(=O)N(c1ccc(-c3ccc(N4C(=O)c5ccc(C(*)(C(F)(F)F)C(F)(F)F)cc5C4=O)cc3-c3ccc(-c4ccccc4)cc3)c(-c3ccc(-c4ccccc4)cc3)c1)C2=O (repeat unit)
319.00	*c1ccc2c(c1)C(=O)N(c1ccc(-c3ccc(N4C(=O)c5ccc(C(*)(C(F)(F)F)C(F)(F)F)cc5C4=O)cc3I)c(I)c1)C2=O (repeat unit)
243.80	*c1ccc2c(c1)C(=O)N(c1ccc(Oc3c(F)c(F)c(Oc4ccc(N5C(=O)c6ccc(C(*)(C(F)(F)F)C(F)(F)F)cc6C5=O)cc4)c(F)c3F)cc1)C2=O (repeat unit)
257.00	*C(=O)Oc1ccc2ccccc2c1-c1c(OC(=O)c2ccc3c(c2)C(=O)N(c2ccc(Oc4ccc(N5C(=O)c6ccc(*)cc6C5=O)cc4)cc2)C3=O)ccc2ccccc12 (repeat unit)
274.00	*Oc1ccc2ccccc2c1-c1c(Oc2ccc3c(c2)C(=O)N(c2ccc(Oc4ccc(N5C(=O)c6ccc(*)cc6C5=O)cc4)cc2)C3=O)ccc2ccccc12 (repeat unit)
223.00	*C(=O)c1ccc2c(c1)C(=O)N(c1cc(N3C(=O)c4ccc(*)cc4C3=O)ccc1OCC(F)(F)C(F)(F)C(F)(F)C(F)(F)C(F)(F)C(F)(F)C(F)(F)F)C2=O (repeat unit)
228.00	*c1ccc2c(c1)C(=O)N(c1ccc(OCC(F)(F)C(F)(F)C(F)(F)C(F)(F)C(F)(F)C(F)(F)F)c(N3C(=O)c4ccc(C(*)(C(F)(F)F)C(F)(F)F)cc4C3=O)c1)C2=O (repeat unit)

glass transition temperature [°C]	SMILES
229.00	*C(=O)c1ccc2c(c1)C(=O)N(c1cc(N3C(=O)c4ccc(*)cc4C3=O)ccc1OCC(F)(F)C(F)(F)C(F)(F)C(F)(F)C(F)(F)C(F)(F)F)C2=O (repeat unit)
262.00	*C(=O)c1ccc2c(c1)C(=O)N(c1cc(N3C(=O)c4ccc(*)cc4C3=O)ccc1OCC(F)(F)C(F)(F)C(F)(F)F)C2=O (repeat unit)
289.00	*C(=O)c1ccc2c(c1)C(=O)N(c1ccc(C(=O)c3ccccc3N3C(=O)c4ccc(*)cc4C3=O)cc1)C2=O (repeat unit)
394.00	*c1c(C)c(C)c(N2C(=O)c3cc4c(cc3C2=O)C(c2ccccc2)(C(F)(F)F)c2cc3c(cc2O4)C(=O)N(*)C3=O)c(C)c1C (repeat unit)
385.00	*C(=O)c1ccc2c(c1)C(=O)N(c1c(C)cc(CC)c(N3C(=O)c4ccc(*)cc4C3=O)c1CC)C2=O (repeat unit)
302.50 ± 3.5	*c1cccc2c1C(=O)N(c1ccc(C3(c4ccc(N5C(=O)c6cccc(*)c6C5=O)c(C)c4)CCCCC3)cc1C)C2=O (repeat unit)
257.50 ± 11	*Sc1ccc2c(c1)C(=O)N(c1cc(Cc3ccc(N4C(=O)c5cccc(*)c5C4=O)c(C)c3)ccc1C)C2=O (repeat unit)
200.00	*C1=C(Cl)C(=O)N(c2ccc(Cc3ccc(N4C(=O)C(Cl)=C(Oc5c(Cl)cc(C(C)(C)c6cc(Cl)c(*)c(Cl)c6)cc5Cl)C4=O)cc3)cc2)C1=O (repeat unit)
319.50 ± 0.7	*Sc1ccc2c(c1)C(=O)N(c1ccc(N3C(=O)c4cccc(*)c4C3=O)cc1)C2=O (repeat unit)
330.00	*Sc1cccc2c1C(=O)N(c1ccc(N3C(=O)c4cccc(*)c4C3=O)cc1)C2=O (repeat unit)
239.00	*Oc1cccc(Oc2ccc(Oc3cccc4c3C(=O)N(c3ccc(Oc5ccc(N6C(=O)c7cccc(*)c7C6=O)cc5)cc3)C4=O)cc2)c1 (repeat unit)
287.00 ± 8.5	*Sc1cccc2c1C(=O)N(c1ccc(Oc3ccc(N4C(=O)c5cccc(*)c5C4=O)cc3)cc1)C2=O (repeat unit)
219.00	*Oc1cccc(Sc2ccc(Oc3ccc4c(c3)C(=O)N(c3ccc(Oc5cccc(Oc6ccc(N7C(=O)c8ccc(*)cc8C7=O)cc6)c5)cc3)C4=O)cc2)c1 (repeat unit)
216.00	*Oc1cccc(S(=O)(=O)c2ccc(Oc3cccc4c3C(=O)N(c3ccc(Oc5cccc(Oc6ccc(N7C(=O)c8cccc(*)c8C7=O)cc6)c5)cc3)C4=O)cc2)c1 (repeat unit)
163.00	*C1=C(Cl)C(=O)N(c2cccc(N3C(=O)C(Cl)=C(Oc4ccc(C(C)(C)c5ccc(*)cc5)cc4)C3=O)c2)C1=O (repeat unit)
239.00	*Oc1cccc(C(=O)c2ccc(Oc3ccc4c(c3)C(=O)N(c3cccc(N5C(=O)c6ccc(*)cc6C5=O)c3)C4=O)cc2)c1 (repeat unit)
249.00 ± 5.7	*Oc1ccc2c(c1)C(=O)N(c1ccc(Oc3ccc(Oc4cccc(N5C(=O)c6cccc(*)c6C5=O)c4)cc3)cc1)C2=O (repeat unit)
263.00	*Oc1cccc2c1C(=O)N(c1ccc(Oc3ccc(Oc4cccc(N5C(=O)c6cccc(*)c6C5=O)c4)cc3)cc1)C2=O (repeat unit)
289.00	*C(=O)c1ccc2c(c1)C(=O)N(c1ccccc1Oc1ccccc1N1C(=O)c3ccc(*)cc3C1=O)C2=O (repeat unit)
296.00	*c1cccc(C(c2cccc(-n3c(=O)c4cc5c(=O)n(*)c(=O)c5cc4c3=O)c2)(C(F)(F)F)C(F)(F)F)c1 (repeat unit)

SMILES	glass transition temperature [°C]
*c1cccc(Oc2ccc(P(=O)(c3ccccc3)c3ccc(Oc4ccc(-n5c(=O)c6cc7c(=O)n(*)c(=O)c7cc6c5=O)cc4)cc3)cc2)c1 (repeat unit)	254.00
*C(=O)c1ccc2c(c1)C(=O)N(c1cccc(Oc3ccc(P(=O)(c4ccccc4)c4ccc(Oc5ccc(N6C(=O)c7ccc(*)cc7C6=O)cc5)cc4)cc3)c1)C2=O (repeat unit)	232.00
*c1ccc2c(c1)C(=O)N(c1ccc(P(=O)(c3ccccc3)c3ccc(N4C(=O)c5ccc(C(*)(C(F)(F)F)C(F)(F)F)cc5C4=O)cc3)cc1)C2=O (repeat unit)	345.00
*Oc1ccc2c(c1)C(=O)N(c1ccc(P(=O)(c3ccccc3)c3ccc(N4C(=O)c5ccc(*)cc5C4=O)cc3)cc1)C2=O (repeat unit)	311.00
